From PubChem BioAssay AID1996
≈ marks a conversion by molar mass, not a printed value.

settings: buffer; pH 7.4; 200.0 µM

SMILES	solubility kinetic [µg/mL]
O=C(Nc1ccc(N2CCOCC2)cc1)c1nc2ccccc2s1	< 0.2
COc1ccc(/C=C(\C)c2nc(C)c(-c3ccccc3)c(=O)[nH]2)cc1	1.4 (≈ 4.21 µM)
O=c1c(Cc2ccccc2)c(O)ccn1C1CCCCCCC1	1.5 (≈ 4.82 µM)
Cc1ccc(S(=O)(=O)C2(C(=O)NCCc3ccccc3)CC2)cc1	50.5 (≈ 147 µM)
CSc1nc(N)nc(N(C)C)n1	24.3 (≈ 131 µM)
Br.COc1ccc(C(=O)CN2Cc3ccccc3C2=N)cc1	> 54.2
CCN(CC(=O)NCc1cccs1)C(=O)c1ccc(-c2ccc(F)cc2)o1	51.8 (≈ 134 µM)
Cc1ccc(N2N=C(C(=O)O)CCC2=O)cc1Cl	> 40
COCCCNC(=S)N/N=C/c1ccc(O)cc1	> 40.1
CN(C(=O)C1CCN(S(=O)(=O)c2ccccc2[N+](=O)[O-])CC1)C1CCCCC1	52.9 (≈ 129 µM)
Cc1scc(C(=O)N2CCN(c3ccc(Cl)cc3)CC2)c1C	23.3 (≈ 69.6 µM)
N#Cc1ccccc1Cn1c(=O)oc2ccccc21	30.9 (≈ 123 µM)
c1ccc(CCN2CCC3(CC2)OCCO3)cc1	29.2 (≈ 118 µM)
CC1C(C#N)=C(N)OC2=C1C(=O)CC(c1ccccc1)C2 (stereo not given)	> 42
FC(F)(F)c1ccccc1N1CC1c1ccncc1 (stereo not given)	31 (≈ 117 µM)
COc1c(O)cccc1/C=N/NC(=O)Cn1ccnc1C	> 43.2
O=C(NNC(=S)Nc1ccccc1C(F)(F)F)c1cccnc1	> 51
O=C(NC1CCCCC1)c1cc(-c2cccs2)on1	0.9 (≈ 3.26 µM)
Cc1cc(C)c2[nH]c(C(=O)Nc3ccc4c(c3)OCO4)cc2c1	2.2 (≈ 7.14 µM)
Cc1ccc(-c2ncns2)cc1	0.5 (≈ 2.84 µM)
CC1CCC(C(=O)NC(C(=O)Nc2ccccn2)C(C)C)CC1 (stereo not given)	13.5 (≈ 42.5 µM)
CCc1cc(C(=O)N2CCN(c3ccccn3)CC2)sc1C	43 (≈ 136 µM)
COc1cccc(/C=C2\N=C(C3CCCCC3)OC2=O)c1OC	16.4 (≈ 52 µM)
CNS(=O)(=O)c1cc2c3c(cccc3c1)C(=O)NC2=O	6.3 (≈ 21.7 µM)

SMILES	solubility kinetic [µg/mL]
CC(C)CCNc1nc2ccccc2nc1NS(=O)(=O)c1cccs1	7.3 (≈ 19.4 µM)
Cc1c(C(=O)c2ccc(Br)cc2)c(=O)n(C)c(=O)n1C	50.1 (≈ 149 µM)
CC(=O)OCC(=O)Nc1ccccc1C	> 31.1
CC(c1ccccc1)C1CC(=O)N(c2cc(Cl)ccn2)C1=O (stereo not given)	> 47.2
O=C(NCc1cccnc1)c1ccccc1NS(=O)(=O)c1ccc(Br)cc1	> 66.9
Cc1cccnc1NC(=S)Nc1ccc(F)cc1F	8 (≈ 28.6 µM)
CC(C)OP(=O)(OC(C)C)C(Nc1ccc(C(=O)O)cc1)c1ccccc1 (stereo not given)	> 58.7
COc1ccccc1CC(=O)OCC(=O)N1CCN(c2ccc(F)cc2)CC1	> 58
O=C(COC(=O)c1ccc(Br)o1)Nc1cccc(S(=O)(=O)N2CCCCC2)c1	9.3 (≈ 19.7 µM)
O=C(/C=C/c1cccc(F)c1)N1CCN(c2ncccn2)CC1	12.4 (≈ 39.7 µM)
O=C(CNC(=O)c1cccs1)c1ccc(Br)cc1	17.9 (≈ 55.2 µM)
S=C(Nc1ccccn1)NC1CCCCC1	5.7 (≈ 24.2 µM)
COc1ccccc1CNC(=O)CS(=O)(=O)Cc1ccccc1	41.4 (≈ 124 µM)
COc1ccc(CC(=O)N2CCN(c3cccc(Cl)c3)CC2)cc1OC	48.7 (≈ 130 µM)
O=C(CSc1ncnc2ccccc12)NCCc1ccccc1	> 48.5
CC(=O)N1CCN(c2nnc(-c3ccccc3)c3ccccc23)CC1	> 49.9
Cc1c(C(=O)OCC(=O)NC(C)c2ccccc2)oc2ccccc12 (stereo not given)	4.4 (≈ 13 µM)
Cc1c(C=O)c2ccccc2n1CC(=O)O	> 32.6
O=C(O)Cn1c(=O)c2c3c(sc2n(Cc2ccc(F)cc2)c1=O)CCCC3	> 58.3
Cc1ccc(NC(=O)Cc2cc(C(=O)O)c3ccccc3n2)c(C)c1	2.5 (≈ 7.48 µM)
COc1ccc(CN(C#N)c2nc(C)cc(C)n2)cc1	38.5 (≈ 143 µM)
CCCCCn1c(=O)c(C(=O)Nc2ccccc2N)c(O)c2ccccc21	< 0.3
O=C(Nc1cccc2c1CCCC2)c1ccccc1Cl	1.8 (≈ 6.3 µM)
Cn1ccnc1SCC(=O)c1cccc(C(F)(F)F)c1	> 45

SMILES	solubility kinetic [µg/mL]
Cc1ccccc1-n1cc[nH]c1=S	> 28.5
Cc1cc(Cl)ccc1OC(C)C(=O)NCCCn1ccnc1 (stereo not given)	> 48.3
Cc1ccc(/C=C(\NC(=O)c2ccccc2)C(=O)N2CCCCC2)cc1	39.9 (≈ 115 µM)
COCCNC(=O)c1ccccc1NC(=O)Nc1ccccc1	> 47
COc1ccccc1-c1noc(CCCC(=O)NC2CCCCC2)n1	48.5 (≈ 141 µM)
COc1ccc(CCNC(=O)COC(=O)c2cc(=O)[nH]c3ccccc23)cc1	8.9 (≈ 23.4 µM)
CN(CC(=O)Nc1ccccc1Cl)C(=O)COC(=O)c1ccc(-c2ccc(O)cc2)cc1	3.2 (≈ 7.07 µM)
Cc1ccc(-c2cc(C(=O)O)c3ccccc3n2)s1	> 40.4
COCCn1c(SC2CCOC2=O)nc2ccccc2c1=O (stereo not given)	> 48.1
COc1ccc(S(=O)(=O)N(CCC#N)Cc2ccco2)cc1OC	28.2 (≈ 80.5 µM)
O=C(NC(=S)Nc1ccc2[nH]c(=O)[nH]c2c1)c1ccccc1F	1.1 (≈ 3.33 µM)
CCOC(=O)c1sc(=NC(=O)c2ccccc2)n(C)c1C	0.4 (≈ 1.31 µM)
COC(=O)N1CCCc2cc(C)ccc21	15.5 (≈ 75.5 µM)
N=C1SC(CC(=O)Nc2ccc([N+](=O)[O-])cc2)C(=O)N1c1ccccc1 (stereo not given)	1 (≈ 2.7 µM)
CCCCCC1CC(CC(=O)NC(=S)Nc2ccccc2Cl)C(=O)O1 (stereo not given)	1.4 (≈ 3.66 µM)
COc1ccc(-c2csc(-c3ccc(O)cc3)n2)cc1	< 0.6
OCC(O)CNC(=S)NC1CCCCC1 (stereo not given)	> 34.9
CC(=O)c1c(C)[nH]c(C(=O)Nc2cccc(C)n2)c1C	21.4 (≈ 78.9 µM)
COc1cccc(NS(=O)(=O)c2ccc3c(c2)CC(=O)N3)c1	> 47.8
COc1ccc(S(=O)(=O)n2cccc2)c(OC)c1	3.9 (≈ 14.6 µM)
COc1ccc(C(=O)N2CCCC(Nc3ccc(C)c(C)c3)C2)cc1 (stereo not given)	40.5 (≈ 120 µM)
CC1CCCC(NC(=O)COC(=O)c2ccc([N+](=O)[O-])s2)C1C (stereo not given)	15.4 (≈ 45.2 µM)
O=c1[nH]c2ccccc2nc1CCc1ccccc1	1.4 (≈ 5.59 µM)
CCn1cc(CCC(=O)NC(C)c2ccccc2)c2ccccc21 (stereo not given)	7.4 (≈ 23.1 µM)

SMILES	solubility kinetic [µg/mL]
COC(=O)c1ccccc1NC(=S)N(C)C	34.2 (≈ 144 µM)
C(=C\c1ccc2ccccc2n1)/c1ccccc1	0.5 (≈ 2.16 µM)
O=C(c1cc(F)c(F)cc1Cl)N1CCCc2ccccc21	30.3 (≈ 98.5 µM)
CC(C)Oc1ccc(C(=O)CCN2CCOCC2)cc1	32.8 (≈ 118 µM)
On1c(-c2ccccc2)nc2ncccc21	> 31.7
O=C(c1cccc(F)c1)N1CCC2(CC1)NCCc1[nH]cnc12	> 47.2
CCOc1ccc(NC(=O)/C(C#N)=C/c2cn(CC(=O)O)c3ccccc23)cc1	> 58.4
CCOC(=O)N1CCN(C(=S)Nc2ccccc2C(C)C)CC1	> 50.3
O=[N+]([O-])c1ccc2ncnc(Nc3ccc4c(c3)OCCO4)c2c1	0.2 (≈ 0.617 µM)
Cc1cc(N2CCN(C(=O)c3cccs3)CC2)c(F)cc1[N+](=O)[O-]	1.5 (≈ 4.29 µM)
COc1ccccc1CNC(=O)CCCc1cn(C)c2ccccc12	8.2 (≈ 24.4 µM)
COc1ccc(CN(C(=O)/C=C/c2ccco2)C2CCS(=O)(=O)C2)cc1 (stereo not given)	44.7 (≈ 119 µM)
CCCn1c(NC(=O)c2ccc([N+](=O)[O-])o2)nc2ccccc21	10.4 (≈ 33.1 µM)
CCCNc1nc(N2CCCC2)nc(N2CCCC2)n1	33.6 (≈ 122 µM)
CCCc1ncc(C(O)c2ccccc2OC)n1C (stereo not given)	> 39.1
S=C(NCc1cccnc1)Nc1ccc(Cl)cc1Cl	> 46.8
COc1cc(C(=O)N=c2sccn2C)c([N+](=O)[O-])cc1OC	47.2 (≈ 146 µM)
O=C(NCc1ccc(Cl)c(Cl)c1)C1CCCC1	32.6 (≈ 120 µM)
CC(C)CC(=O)Nc1ccc(C(=O)COC(=O)C2CCC2)cc1	5.3 (≈ 16.7 µM)
CC(C)(C)C1CCc2c(sc3nc(SCC(=O)O)nc(N)c23)C1 (stereo not given)	39.4 (≈ 112 µM)
CC(=O)N1CCN(CC(=O)Nc2ccccc2C(=O)Nc2ccccc2)CC1	> 57.1
C=CCn1c(SCC(C)=O)nnc1-c1ccc2ncccc2c1	> 48.7
COc1ccc(CCN(C)CCCC(C#N)(c2cc(OC)c(OC)c(OC)c2)C(C)C)cc1OC.Cl (stereo not given)	> 78.2
O=C(NCC1CCCO1)c1ccc(NC(=O)c2cc(F)c(F)cc2Cl)cc1 (stereo not given)	5.3 (≈ 13.4 µM)

SMILES	solubility kinetic [µg/mL]
Cc1ccc(C(=O)NCC(=O)OC2CCCCC2=O)cc1C (stereo not given)	> 45.5
NC(=O)c1c(NC(=O)c2cccnc2)sc2c1CCCCC2	6 (≈ 19 µM)
CC(=O)Nc1ccc(NCc2cccs2)cc1	> 36.9
COC(=O)[C@H](Cc1ccccc1)NC(=O)NC(C)CCc1ccccc1 (stereo not given in full)	49.8 (≈ 140 µM)
CC1(C)CC(NS(=O)(=O)c2ccc(F)cc2)CC(C)(C)N1	47.1 (≈ 150 µM)
COc1cccc(NC(=O)Nc2ccc3c(c2)OCO3)c1	3.7 (≈ 12.9 µM)
CN(CC(=O)Nc1ccccc1Br)C(=O)CN1CCN(Cc2cccc(Cl)c2)CC1	> 74.1
CCOc1ncccc1C(=O)Nc1ccc2c(c1)OCO2	2.7 (≈ 9.43 µM)
Cc1cccc(OCCCCCN2CCOCC2)c1C	28.6 (≈ 103 µM)
O=C(CN1CCN(C(=O)c2ccco2)CC1)Nc1ccccc1	> 47
Cc1ccc(NC(=O)CCn2cc(C(F)(F)F)ccc2=O)cc1	45.5 (≈ 140 µM)
N/C(=N\OC(=O)Cc1ccc(-c2ccccc2)cc1)c1ccncc1	0.7 (≈ 2.11 µM)
O=C(C1CCCN(Cc2ccccc2F)C1)N1CCCC1.O=C(O)C(=O)O (stereo not given)	43.2
Cc1cc(C)c(-c2cc(C)nc3ncnn23)c(C)c1	> 37.8
O=C(O)c1cccc(CN2C(=O)c3ccccc3C2=O)c1	> 42.2
O=C(CNC(=O)c1ccc(Br)cc1)c1ccccc1	1.3 (≈ 4.09 µM)
O=C(O)CC(CC(=O)Nc1ccc(-c2ccccc2)cc1)c1ccccc1 (stereo not given)	> 53.9
CNCc1sccc1C.Cl	> 26.7
O=C1c2cccc3cccc(c23)N1Cc1cccc(F)c1	2.6 (≈ 9.38 µM)
Cn1c(O)c(/C=N/NC(=O)c2ccncc2)c(=O)[nH]c1=S	> 45.8
CCN(Cc1nc(-c2cccc(C)c2)no1)C(=O)c1ccco1	44.4 (≈ 143 µM)
O=C(/C=C/c1ccccc1[N+](=O)[O-])NCc1ccccc1Cl	1.5 (≈ 4.74 µM)
CCCCNC(=S)Nc1ccc(SC(F)F)cc1	> 43.6
COc1ccc(C(=O)COc2ccc(C)cc2NC(C)=O)cc1	36.7 (≈ 117 µM)
